Experimental data reported in US8987195B2 (priority 2012, dated 2015).
Like-named read-outs stand apart in the source and are kept apart here.

Tests used:
[1] = target: HCV NS3/4A protease genotype 1b (Hepatitis C virus genotype 1b, UniProt P26663); assay: HCV NS3/4A protease time-resolved fluorescence (TRF) assay, Ki against genotype 1b; format: biochemical; details: IC50 [gt-1b], NS3/4A protease TRF assay, genotype 1b enzyme 0.2 nM
Method in brief: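 Enzyme was pre-incubated 30 min with inhibitor in HEPES pH 7.5 buffer (150 mM NaCl, 15% glycerol, 10 mM DTT). Reaction ran 2.5 h at room temperature with 25 nM europium TRF peptide substrate, read at ex 340/em 615 nm. Enzyme levels: 0.2 nM (1b), 0.4 nM (A156T), 0.025 nM (3a). Ki came from four-parameter IC50 via IC50=Ki(1+[S]/KM).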

HCV genotype 1b replicon = assay: HCV replicon assay, genotype 1b replicon EC50; format: cell-based, Hepatitis C virus; details: HCV replicon, genotype 1b, read-out: EC50 [gt-1b]
Method in brief: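 Potency comes from a four-parameter fit of signal as percent of DMSO control. Replicon-bearing cells were treated 24-48 hours with a compound dilution series in absence of G418, and replicon RNA was quantified normalized to cyclophilin A RNA, or luciferase read.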

Cc1nc2ccccc2c2c1O[C@]1(CC2)C[C@H]2C(=O)N[C@]3(C(=O)NS(=O)(=O)C4(C)CC4)C[C@H]3/C=C\CCCCC[C@H](NC(=O)OC3CCC(F)(F)C3)C(=O)N2C1 (stereo partly drawn) [Example 375, 3,3-difluorocyclopentyl [(2R,6S,12Z,13aS,14aR,16aS)-5′-methyl-14a-{[(1-methylcyclopropyl)sulfonyl]carbamoyl}-5,16-dioxo-1,1′,2′,5,6,7,8,9,10,11,13a,14,14a,15,16,16a-hexadecahydrospiro[cyclopropa[e]pyrrolo[1,2-a][1,4]diazacyclopentadecine-2,3′-pyrano[2,3-c]quinolin]-6-yl]carbamate]
IC50 [1]: 18 pM | EC50 (HCV genotype 1b replicon): 6380 pM

Cc1nc2ccccc2c2c1O[C@]1(CC2)C[C@H]2C(=O)N[C@]3(C(=O)NS(=O)(=O)C4(C)CC4)C[C@H]3/C=C\CCCCC[C@H](NC(=O)OC3CCC(F)(F)C3)C(=O)N2C1 (stereo partly drawn) [Example 376, 3,3-difluorocyclopentyl [(2R,6S,12Z,13aS,14aR,16aS)-5′-methyl-14a-{[(1-methylcyclopropyl)sulfonyl]carbamoyl}-5,16-dioxo-1,1′,2′,5,6,7,8,9,10,11,13a,14,14a,15,16,16a-hexadecahydrospiro[cyclopropa[e]pyrrolo[1,2-a][1,4]diazacyclopentadecine-2,3′-pyrano[2,3-c]quinolin]-6-yl]carbamate]
IC50 [1]: 13 pM | EC50 (HCV genotype 1b replicon): 2690 pM

COc1ccc2nc(C)c3c(c2n1)[C@H](F)C[C@]1(C[C@H]2C(=O)N[C@]4(C(=O)NS(=O)(=O)C5(C)CC5)C[C@H]4/C=C\CCCCC[C@H](NC(=O)OCC(C)(C)C)C(=O)N2C1)O3 [Example 377, 2,2-dimethylpropyl [(2S,6S,10′R,12Z,13aS,14aR,16aS)-10′-fluoro-2′-methoxy-6′-methyl-14a-{[(1-methylcyclopropyl)sulfonyl]carbamoyl}-5,16-dioxo-1,5,6,7,8,9,9′,10,10′,11,13a,14,14a,15,16,16a-hexadecahydrospiro[cyclopropa[e]pyrrolo[1,2-a][1,4]diazacyclopentadecine-2,8′-pyrano[2,3-c][1,5]naphthyridin]-6-yl]carbamate]
IC50 [1]: 18 pM | EC50 (HCV genotype 1b replicon; Hepatitis C virus): 2520 pM

CC(C)(C)OC(=O)N[C@H]1CCCCC/C=C\[C@@H]2C[C@@]2(C(=O)NS(=O)(=O)C2(C)CC2)NC(=O)[C@@H]2C[C@]3(CCc4c(c(C(F)(F)F)nc5ccc(Cl)cc45)O3)CN2C1=O [Example 378, tert-butyl [(2R,6S,12Z,13aS,14aR,16aS)-9′-chloro-14a-{[(1-methylcyclopropyl)sulfonyl]carbamoyl}-5,16-dioxo-5′-(trifluoromethyl)-1,1′,2′,5,6,7,8,9,10,11,13a,14,14a,15,16,16a-hexadecahydrospiro[cyclopropa[e]pyrrolo[1,2-a][1,4]diazacyclopentadecine-2,3′-pyrano[2,3-c]quinolin]-6-yl]carbamate]
IC50 [1]: 20 pM | EC50 (HCV genotype 1b replicon; Hepatitis C virus): 3590 pM

Cc1nc2ccccc2c2c1O[C@]1(CC2)C[C@H]2C(=O)N[C@]3(C(=O)NS(=O)(=O)C4(C)CC4)C[C@H]3/C=C\CCCCC[C@H](Nc3nc4ccccc4o3)C(=O)N2C1 [Example 379, (2R,6S,12Z,13aS,14aR,16aS)-6-(1,3-benzoxazol-2-ylamino)-5′-methyl-N-[(1-methylcyclopropyl)sulfonyl]-5,16-dioxo-1,1′,2′,6,7,8,9,10,11,13a,14,15,16,16a-tetradecahydrospiro[cyclopropa[e]pyrrolo[1,2-a][1,4]diazacyclopentadecine-2,3′-pyrano[2,3-c]quinoline]-14a(5H)-carboxamide]
IC50 [1]: 104 pM | EC50 (HCV genotype 1b replicon; Hepatitis C virus): 1360 pM
